Data on eight molecules can be found in US20220144823A1, “PYRAZOLOPYRIDINE DERIVATIVES AS INHIBITORS OF PASK” (Galapagos NV, priority 2019, published 2022).

The target of assay [1] is T1, human PASK (Homo sapiens, UniProt Q96RG2).
T1 construct: purchased ThermoFisher Scientific PR7013A
Put plainly: 33P radioactive kinase assay. Type of assay: biochemical. To be noted: 33P radioactive PASK kinase assay, 10 μM ATP, ZIPtide 1 μM. In a few lines:
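Human PASK phosphorylation of ZIPtide peptide was measured by incorporation from [^33P]-ATP plus unlabelled ATP, with a 10-point, 1/5 dilution series from 0.2 or 2 mM DMSO stocks and 1% DMSO final. Reactions were stopped with phosphoric acid, filter-harvested, washed and scintillation-counted. Percentage inhibition gave dose–response curves and averaged IC50s.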

The target of assay [2] is T2, autophosphorylation of PASK at position Thr307 in Hek293 cells overexpressing PASK (Homo sapiens, UniProt Q96RG2).
T2 construct: expressed in transfected cells; host or cells: Hek293
T2 sequence (Q96RG2 with tags, fused parts or gaps): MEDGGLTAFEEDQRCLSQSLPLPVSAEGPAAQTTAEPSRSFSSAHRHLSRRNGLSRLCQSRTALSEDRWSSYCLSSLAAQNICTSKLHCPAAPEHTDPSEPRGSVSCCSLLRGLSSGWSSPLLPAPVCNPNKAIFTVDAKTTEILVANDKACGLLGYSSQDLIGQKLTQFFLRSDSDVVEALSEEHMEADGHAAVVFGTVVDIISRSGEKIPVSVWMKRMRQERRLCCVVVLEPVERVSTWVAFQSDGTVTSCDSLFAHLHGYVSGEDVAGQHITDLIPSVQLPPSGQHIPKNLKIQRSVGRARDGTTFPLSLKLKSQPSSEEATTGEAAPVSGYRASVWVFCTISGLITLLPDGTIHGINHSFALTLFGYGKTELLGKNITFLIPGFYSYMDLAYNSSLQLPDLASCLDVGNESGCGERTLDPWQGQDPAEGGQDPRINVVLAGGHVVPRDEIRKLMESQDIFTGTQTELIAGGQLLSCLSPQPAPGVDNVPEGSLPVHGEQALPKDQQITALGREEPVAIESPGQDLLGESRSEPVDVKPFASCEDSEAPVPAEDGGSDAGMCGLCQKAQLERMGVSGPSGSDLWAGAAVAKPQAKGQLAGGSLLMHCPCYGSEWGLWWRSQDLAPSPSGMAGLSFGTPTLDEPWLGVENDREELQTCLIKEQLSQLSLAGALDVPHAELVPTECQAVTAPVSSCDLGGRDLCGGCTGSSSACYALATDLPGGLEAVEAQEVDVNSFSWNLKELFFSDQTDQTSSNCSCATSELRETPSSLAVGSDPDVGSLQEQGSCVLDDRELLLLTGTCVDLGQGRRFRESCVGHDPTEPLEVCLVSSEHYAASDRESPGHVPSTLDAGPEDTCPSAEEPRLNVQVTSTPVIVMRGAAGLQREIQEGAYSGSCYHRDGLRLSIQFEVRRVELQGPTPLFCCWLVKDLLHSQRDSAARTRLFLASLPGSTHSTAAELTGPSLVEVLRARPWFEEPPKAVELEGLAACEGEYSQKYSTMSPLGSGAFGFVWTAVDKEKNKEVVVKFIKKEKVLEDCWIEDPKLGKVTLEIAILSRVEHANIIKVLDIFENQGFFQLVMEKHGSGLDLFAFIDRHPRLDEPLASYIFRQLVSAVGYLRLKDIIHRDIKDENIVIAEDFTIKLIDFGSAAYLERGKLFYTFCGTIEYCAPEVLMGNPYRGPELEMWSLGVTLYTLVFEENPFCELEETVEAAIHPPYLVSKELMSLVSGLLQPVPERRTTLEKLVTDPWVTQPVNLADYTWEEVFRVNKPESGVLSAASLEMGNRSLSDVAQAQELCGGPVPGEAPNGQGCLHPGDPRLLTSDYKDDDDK
Put plainly: PASK autophosphorylation ELISA assay. Type of assay: cell-based. To be noted: 24 h, ELISA readout. On the procedure: The compounds of the invention are profiled in a cellular assay to determine their capacity to reduce the autophosphorylation levels of PASK at position Thr307 in Hek293 cells overexpressing PASK, using an ELISA-based readout.
At day 1, a 96-well cell assay plate is coated with poly-D-lysine (50 μL/well of a 0.05 mg/mL solution in PBS) and incubated for 1 h at 37° C. The plate is subsequently washed once with PBS and stored dry at RT until further use. Hek293 cells are transfected with a pcDNA3.1-PASK(FL,WT)-FLAG construct (SEQ ID1) and seeded in culture medium (DMEM+10% FBS) in a poly-D-lysine coated 96-well plate (0.3 μL JetPEI DNA transfection reagent (Polyplus-transfection SA, Cat #101-40), 10 ng construct and 90 ng pBluescript, 60000 cells per well). […] The cell plate is incubated overnight at 37° C., 5% CO2.
At day 2, the medium of the assay plate is removed and 100 μL of fresh medium (DMEM+10% FBS) is added to the plate. Cell plate is further incubated overnight at 37° C., 5% CO2. This to allow further expression of PASK protein.
At day 3, the medium is removed and replaced with 100 μL of serum free medium (DMEM). Test compound is added to the plate (8 points concentration curve with 1/3 dilution steps starting from 30 μM final concentration in 0.3% DMSO final). In the positive and negative control wells of the plate, 0.3% DMSO final is added. For each tested condition, duplicates are made for ELISA readout. Cell plate is incubated 24 h at 37° C., 5% CO2.
At day 4, the medium is removed and the plate is washed once with 100 μL/well PBS. Cells are lysed by adding 50 μL/well western blot lysis buffer (20 mM Tris pH 7.5, 150 mM NaCl and 1% Triton) to the plate. The assay plate is stored at −80° C. and thawed to perform the ELISA readout.
At day 1, the ELISA plate is coated with the mouse anti-FLAG antibody (2 μg/mL diluted in PBS, 100 μL/well) and incubated overnight at 4° C.
At day 2, the plate is washed once with 150 μL/well PBS. 200 μL/well blocking buffer (PBS with 3% BSA) is added and the plate is incubated for 4 h at RT. The plate is washed with 150 μL/well high salt washing buffer (20 mM Na2HPO4, 0.5% Triton X-100, 0.1% SDS, 0.1% BSA and 1 M NaCl) followed by one wash with 150 μL/well low salt washing buffer (20 mM Na2HPO4, 0.5% Triton X-100, 0.1% SDS, 0.1% BSA and 150 mM NaCl). Meanwhile, the cell lysate plate is thawed, two wells of the same condition are pooled (2×50 μL) and added to the ELISA plate. The ELISA plate is incubated overnight at 4° C.
At day 3, the ELISA plate is washed twice with 150 μL/well high salt washing buffer followed by two washes with low salt washing buffer. 100 μL/well detection antibody for pPASK (phospho-Akt substrate (RXXS*/T*) (110B7E) rabbit antibody (Cell Signaling Technology, Inc., Cat #9614) 2 μg/mL diluted in PBS with 3% BSA and 1×Halt™ protease and phosphatase inhibitor cocktail (Thermo Fisher Scientific, Inc., Cat #78447)) is added and incubated for 2 h at RT. The plate is washed twice with high and low salt wash buffer (150 μL/well) and 100 μL/well of an HRP antibody (swine anti-rabbit HRP antibody (Agilent Technologies, Inc., Cat #P039901) diluted 1/2000 in PBS with 3% BSA and 1×Halt™ protease and phosphatase inhibitor cocktail) is added to the plate, followed by an incubation for 1 h at RT in the dark (plate sealed with aluminum seal). The plate is washed twice with high and low salt wash buffer (150 μL/well) and 100 μL/well of SuperSignal™ ELISA Pico Chemiluminescent Substrate (Thermo Fisher Scientific, Inc., Cat #37070)(premix part 1 and part 2, 1/1) is added. The plate is incubated for 4 min at RT before measuring luminescence on the Luminoskan™ Ascent (Thermo Fisher Scientific, Inc.) (PMT default voltage; 100 ms integration time). […]

Assay [3] concerns the target T1, human PASK. Put plainly: ADP-Glo kinase assay. The assay is classed as biochemical. To be noted: ADPGlo PASK kinase assay, 25 μM ATP, ZIPtide 25 μM. Summed up:
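Human recombinant PASK phosphorylating ZIPtide peptide with ATP, 120 min at RT; compounds in 10-point 1/5 dilution series, 1% DMSO final. ADP formed measured by ADP-Glo luminescence after ATP depletion; percent inhibition fitted to dose-response curves for averaged IC50.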
(In general: In ADP-Glo the light output rises with the ADP produced.)

T1 sequence (Q96RG2 whole entry): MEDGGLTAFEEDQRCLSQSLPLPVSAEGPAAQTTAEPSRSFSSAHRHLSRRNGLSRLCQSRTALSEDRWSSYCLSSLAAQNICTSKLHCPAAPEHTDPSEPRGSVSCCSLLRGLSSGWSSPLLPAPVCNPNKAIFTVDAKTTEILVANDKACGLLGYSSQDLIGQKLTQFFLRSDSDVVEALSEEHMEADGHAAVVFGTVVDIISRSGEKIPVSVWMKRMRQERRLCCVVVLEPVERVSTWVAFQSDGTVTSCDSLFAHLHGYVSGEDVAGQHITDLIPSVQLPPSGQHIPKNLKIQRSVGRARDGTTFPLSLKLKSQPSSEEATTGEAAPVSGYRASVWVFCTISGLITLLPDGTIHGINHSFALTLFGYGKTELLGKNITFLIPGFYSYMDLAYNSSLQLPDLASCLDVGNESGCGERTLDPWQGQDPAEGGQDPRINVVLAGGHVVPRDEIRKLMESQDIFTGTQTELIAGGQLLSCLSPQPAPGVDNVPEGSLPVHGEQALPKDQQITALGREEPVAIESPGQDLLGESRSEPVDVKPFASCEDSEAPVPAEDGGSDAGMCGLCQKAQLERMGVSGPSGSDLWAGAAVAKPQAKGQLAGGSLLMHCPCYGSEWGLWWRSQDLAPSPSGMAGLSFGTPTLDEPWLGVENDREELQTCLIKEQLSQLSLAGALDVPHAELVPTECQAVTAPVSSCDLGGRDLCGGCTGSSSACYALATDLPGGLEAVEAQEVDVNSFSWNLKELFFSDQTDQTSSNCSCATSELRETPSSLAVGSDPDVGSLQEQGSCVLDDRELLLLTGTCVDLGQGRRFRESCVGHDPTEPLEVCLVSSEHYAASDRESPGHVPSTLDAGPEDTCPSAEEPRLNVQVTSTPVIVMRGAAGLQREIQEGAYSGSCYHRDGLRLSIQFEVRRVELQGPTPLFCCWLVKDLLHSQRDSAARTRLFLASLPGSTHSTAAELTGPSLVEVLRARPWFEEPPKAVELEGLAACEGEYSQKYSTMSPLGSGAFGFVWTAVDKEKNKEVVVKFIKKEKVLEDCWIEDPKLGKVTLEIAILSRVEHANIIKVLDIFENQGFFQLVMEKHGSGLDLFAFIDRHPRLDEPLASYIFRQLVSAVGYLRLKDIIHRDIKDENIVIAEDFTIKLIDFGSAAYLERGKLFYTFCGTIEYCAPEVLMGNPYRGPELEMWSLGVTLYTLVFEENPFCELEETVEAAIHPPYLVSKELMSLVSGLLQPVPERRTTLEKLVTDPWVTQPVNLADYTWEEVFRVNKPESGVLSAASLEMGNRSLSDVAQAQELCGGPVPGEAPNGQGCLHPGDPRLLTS

As for `Cc1nn(CC(F)(F)F)c(C)c1-c1cnn2ccc(-c3nc(C4CC4)c(C(=O)O)s3)cc12` [Cpd 42, 4-cyclopropyl-2-[3-[3,5-dimethyl-1-(2,2,2-trifluoroethyl)pyrazol-4-yl]pyrazolo[1,5-a]pyridin-5-yl]thiazole-5-carboxylic acid], the IC50 on human PASK [1] was in the range of 0.01 to 10 nM; in assay [2], 0.1 to 500 nM; against human PASK [3], 0.01 to 10 nM.
In the case of `CCn1nc(C)c(-c2cnn3ccc(-c4cc(C(=O)O)co4)cc23)c1C` [Cpd 28, 5-[3-(1-ethyl-3,5-dimethyl-pyrazol-4-yl)pyrazolo[1,5-a]pyridin-5-yl]furan-3-carboxylic acid], the results for the IC50 (on human PASK [1]; in assay [2]; against human PASK [3]) were 0.01 to 10 nM, 500 to 1000 nM and 0.01 to 10 nM, respectively.
With `Cc1noc(C)c1-c1cnn2ccc(-c3cc(C(=O)O)c(C4CC4)o3)cc12` [Cpd 32, 2-cyclopropyl-5-[3-(3,5-dimethylisoxazol-4-yl)pyrazolo[1,5-a]pyridin-5-yl]furan-3-carboxylic acid], the IC50 at human PASK [1] is 0.01 to 10 nM; in assay [2], 1000 to 5000 nM; on human PASK [3] it was 0.01 to 10 nM.
Regarding `Cc1nn(C(F)F)c(C)c1-c1cnn2ccc(-c3cc(C(=O)O)co3)cc12` [Cpd 35, 5-[3-[1-(difluoromethyl)-3,5-dimethyl-pyrazol-4-yl]pyrazolo[1,5-a]pyridin-5-yl]furan-3-carboxylic acid], the values for the IC50 (at human PASK [1]; in assay [2]; against human PASK [3]) were 0.01 to 10 nM, 1000 to 5000 nM and 0.01 to 10 nM, respectively.
Consider `CCOc1nc(-c2ccn3ncc(-c4c(C)nn(C)c4C)c3c2)sc1C(=O)O` [Cpd 9, 4-ethoxy-2-[3-(1,3,5-trimethylpyrazol-4-yl)pyrazolo[1,5-a]pyridin-5-yl]thiazole-5-carboxylic acid], for which the IC50 at human PASK [1] was in the range of 0.01 to 10 nM; in assay [2] it was 500 to 1000 nM; on human PASK [3], 0.01 to 10 nM.
For the molecule `Cc1nn(C(C)C)c(C)c1-c1cnn2ccc(-c3nc(C4CC4)c(C(=O)O)s3)cc12` [Cpd 39, 4-cyclopropyl-2-[3-(1-isopropyl-3,5-dimethyl-pyrazol-4-yl)pyrazolo[1,5-a]pyridin-5-yl]thiazole-5-carboxylic acid], the IC50 lay within 0.01 to 10 nM at human PASK [1], 0.1 to 500 nM in assay [2] and 0.01 to 10 nM at human PASK [3].
As for `CCn1nc(C)c(-c2cnn3ccc(-c4nc(C5CC5)c(C(=O)O)s4)cc23)c1C` [Cpd 38, 4-cyclopropyl-2-[3-(1-ethyl-3,5-dimethyl-pyrazol-4-yl)pyrazolo[1,5-a]pyridin-5-yl]thiazole-5-carboxylic acid], the figures for the IC50 (at human PASK [1]; in assay [2]; against human PASK [3]) were 0.01 to 10 nM, 0.1 to 500 nM and 0.01 to 10 nM, respectively.
On to `COc1nc(-c2ccn3ncc(-c4c(C)nn(C)c4C)c3c2)sc1C(=O)O` [Cpd 8, 4-methoxy-2-[3-(1,3,5 trimethylpyrazol-4-yl)pyrazolo[1,5-a]pyridin-5-yl]thiazole-5-carboxylic acid], for which the values for the IC50 (at human PASK [1]; in assay [2]; on human PASK [3]) were 0.01 to 10 nM, more than 5000 nM and 0.01 to 10 nM, respectively.

As usually defined, the IC50 is the concentration that gives 50% inhibition.
